# In patent US11420958B2, “Aryl and heteroaryl substituted indole compounds” (BRISTOL-MYERS SQUIBB COMPANY, priority 2017, dated 2022):
# Legend:
# Assay type in all cases: cell-based
# human TLR9 = human TLR9 (Homo sapiens (Human), UniProt Q9NR96); assay: TLR9 inhibition reporter assay (HEK-Blue, SEAP); details: HEK-Blue cells overexpressing human TLR9, ODN2006 5 nM stimulation
# Procedure, shortened: (§1)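 SEAP read-out via detection medium after 22 h at 37 °C, 5% CO2; percent inhibition relative to agonist-plus-DMSO and known-inhibitor wells. Agonists: TLR7 gardiquimod 7.5 μM, TLR8 R848 15.9 μM, TLR9 ODN2006 5 nM (final). Compound range 0.05 nM–50 μM, 30 min pre-treatment.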
# human TLR7 = human TLR7 (Homo sapiens (Human), UniProt Q9NYK1); assay: TLR7 inhibition reporter assay (HEK-Blue, SEAP); details: HEK-Blue cells overexpressing human TLR7, gardiquimod 7.5 μM stimulation
# Chain of human TLR7 (Q9NYK1 27-1049): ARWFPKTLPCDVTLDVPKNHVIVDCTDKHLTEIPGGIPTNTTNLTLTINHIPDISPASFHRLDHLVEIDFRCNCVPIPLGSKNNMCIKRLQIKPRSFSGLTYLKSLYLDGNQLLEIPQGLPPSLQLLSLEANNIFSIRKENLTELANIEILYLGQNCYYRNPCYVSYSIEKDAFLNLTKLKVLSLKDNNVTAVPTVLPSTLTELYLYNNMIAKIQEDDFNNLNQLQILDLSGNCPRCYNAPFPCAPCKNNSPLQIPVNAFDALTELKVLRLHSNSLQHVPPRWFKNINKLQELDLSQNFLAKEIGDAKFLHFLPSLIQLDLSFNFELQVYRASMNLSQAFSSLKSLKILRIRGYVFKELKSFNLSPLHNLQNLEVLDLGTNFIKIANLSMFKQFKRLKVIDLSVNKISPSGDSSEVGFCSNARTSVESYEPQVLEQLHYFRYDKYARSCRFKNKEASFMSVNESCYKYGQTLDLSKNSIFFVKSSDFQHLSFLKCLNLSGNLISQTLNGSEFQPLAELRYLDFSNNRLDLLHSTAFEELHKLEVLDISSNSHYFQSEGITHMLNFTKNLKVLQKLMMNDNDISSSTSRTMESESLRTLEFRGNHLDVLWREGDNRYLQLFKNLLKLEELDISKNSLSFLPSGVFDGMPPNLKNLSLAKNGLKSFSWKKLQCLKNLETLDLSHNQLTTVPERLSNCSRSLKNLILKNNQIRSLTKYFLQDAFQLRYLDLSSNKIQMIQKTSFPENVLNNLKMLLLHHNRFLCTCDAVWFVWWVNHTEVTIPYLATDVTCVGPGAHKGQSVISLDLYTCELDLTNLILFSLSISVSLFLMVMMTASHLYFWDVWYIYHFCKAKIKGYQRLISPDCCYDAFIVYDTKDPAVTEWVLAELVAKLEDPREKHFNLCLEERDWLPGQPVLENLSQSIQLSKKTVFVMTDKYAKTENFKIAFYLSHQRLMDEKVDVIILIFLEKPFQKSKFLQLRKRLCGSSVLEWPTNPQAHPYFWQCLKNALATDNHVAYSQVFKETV
# Procedure, shortened: as §1
# human TLR8 = human TLR8 (Homo sapiens (Human), UniProt Q9NR97); assay: TLR8 inhibition reporter assay (HEK-Blue, SEAP); details: HEK-Blue cells overexpressing human TLR8, R848 15.9 μM stimulation
# Chain of human TLR8 (Q9NR97 27-1041): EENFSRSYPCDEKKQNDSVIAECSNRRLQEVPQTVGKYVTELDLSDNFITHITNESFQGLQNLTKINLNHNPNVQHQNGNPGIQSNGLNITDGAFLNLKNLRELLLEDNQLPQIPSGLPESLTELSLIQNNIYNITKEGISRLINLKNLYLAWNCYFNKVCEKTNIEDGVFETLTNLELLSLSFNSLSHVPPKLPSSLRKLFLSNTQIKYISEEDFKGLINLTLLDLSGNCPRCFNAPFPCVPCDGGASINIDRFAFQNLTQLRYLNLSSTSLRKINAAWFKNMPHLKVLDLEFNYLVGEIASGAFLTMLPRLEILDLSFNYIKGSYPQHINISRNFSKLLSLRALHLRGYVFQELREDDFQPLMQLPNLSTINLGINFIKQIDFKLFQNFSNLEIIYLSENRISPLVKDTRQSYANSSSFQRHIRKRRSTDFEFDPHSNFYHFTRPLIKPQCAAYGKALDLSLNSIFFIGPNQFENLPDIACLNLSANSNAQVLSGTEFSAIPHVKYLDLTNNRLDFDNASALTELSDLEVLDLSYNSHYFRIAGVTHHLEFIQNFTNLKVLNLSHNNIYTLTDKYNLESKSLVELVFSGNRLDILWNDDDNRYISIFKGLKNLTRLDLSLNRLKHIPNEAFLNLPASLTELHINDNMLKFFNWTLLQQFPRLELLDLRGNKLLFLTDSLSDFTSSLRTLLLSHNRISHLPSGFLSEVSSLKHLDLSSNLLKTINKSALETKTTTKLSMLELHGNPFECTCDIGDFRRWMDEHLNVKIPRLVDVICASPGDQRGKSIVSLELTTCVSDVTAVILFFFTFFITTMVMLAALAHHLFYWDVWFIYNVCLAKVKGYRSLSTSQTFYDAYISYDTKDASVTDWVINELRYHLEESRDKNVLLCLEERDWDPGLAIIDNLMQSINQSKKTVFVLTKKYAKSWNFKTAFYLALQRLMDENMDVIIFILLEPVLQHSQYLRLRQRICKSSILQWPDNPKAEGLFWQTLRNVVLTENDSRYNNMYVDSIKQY
# Procedure, shortened: as §1
# Chain of human TLR9 (Q9NR96 26-1032): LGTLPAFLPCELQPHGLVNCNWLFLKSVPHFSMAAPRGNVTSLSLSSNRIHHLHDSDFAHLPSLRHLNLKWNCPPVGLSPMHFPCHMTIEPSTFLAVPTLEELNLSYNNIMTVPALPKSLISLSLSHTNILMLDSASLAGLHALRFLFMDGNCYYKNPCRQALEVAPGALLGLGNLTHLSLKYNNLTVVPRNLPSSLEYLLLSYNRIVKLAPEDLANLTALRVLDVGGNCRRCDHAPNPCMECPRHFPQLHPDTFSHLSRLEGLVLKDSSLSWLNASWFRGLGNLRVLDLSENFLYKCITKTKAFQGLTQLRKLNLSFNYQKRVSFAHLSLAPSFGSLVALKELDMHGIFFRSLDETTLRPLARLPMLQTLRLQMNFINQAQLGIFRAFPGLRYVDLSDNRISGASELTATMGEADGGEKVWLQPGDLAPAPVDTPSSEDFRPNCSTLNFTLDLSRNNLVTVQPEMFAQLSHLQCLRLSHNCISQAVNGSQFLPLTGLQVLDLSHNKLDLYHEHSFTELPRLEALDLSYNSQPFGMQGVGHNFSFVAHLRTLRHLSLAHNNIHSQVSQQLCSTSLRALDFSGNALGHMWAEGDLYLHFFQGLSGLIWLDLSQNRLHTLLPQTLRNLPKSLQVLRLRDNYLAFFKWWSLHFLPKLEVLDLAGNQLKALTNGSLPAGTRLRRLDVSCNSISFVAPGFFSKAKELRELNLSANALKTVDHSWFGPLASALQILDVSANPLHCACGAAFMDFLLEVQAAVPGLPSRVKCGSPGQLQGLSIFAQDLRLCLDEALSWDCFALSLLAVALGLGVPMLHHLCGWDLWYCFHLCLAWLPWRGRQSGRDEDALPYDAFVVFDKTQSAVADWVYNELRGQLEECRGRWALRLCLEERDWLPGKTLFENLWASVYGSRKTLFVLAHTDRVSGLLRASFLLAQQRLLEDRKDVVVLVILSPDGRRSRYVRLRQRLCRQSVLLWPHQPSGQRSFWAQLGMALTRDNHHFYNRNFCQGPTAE
SMILES,IC50 (human TLR9),IC50 (human TLR7),IC50 (human TLR8)
"Cc1cc(-c2[nH]c3ccc(-c4cc5c(s4)CNCC5)cc3c2C(C)C)cc(C)n1 [Example 324, 2-(2-(2,6-dimethylpyridin-4-yl)-3-isopropyl-1H-indol-5-yl)-4,5,6,7-tetrahydrothieno[2,3-c]pyridine]",438 nM,2.6 nM,1.2 nM
"CNC(=O)c1c(-c2ccc3[nH]c(-c4ccnc(C)c4)c(C(C)C)c3c2)nn2c1CNCC2 [Example 215, 2-(3-isopropyl-2-(2-methylpyridin-4-yl)-1H-indol-5-yl)-N-methyl-4,5,6,7-tetrahydropyrazolo[1,5-a]pyrazine-3-carboxamide]",20800 nM,9.8 nM,14 nM
"CCN(CC)C(=O)C1CCCN(C(=O)c2nnc(-c3ccc4[nH]c(-c5ccc(OC)c(OC)c5)c(C(C)C)c4c3)o2)C1 (stereo not drawn) [Example 89, 1-(5-(2-(3,4-dimethoxyphenyl)-3-isopropyl-1H-indol-5-yl)-1,3,4-oxadiazole-2-carbonyl)-N,N-diethylpiperidine-3-carboxamide]",9640 nM,1490 nM,217 nM
"Cc1cc(-c2[nH]c3ccc(-c4ccc(C(=O)N5CCC(NC(C)C)CC5)cc4)cc3c2C(C)C)ccn1 [Example 321, (4-(3-isopropyl-2-(2-methylpyridin-4-yl)-1H-indol-5-yl)phenyl)(4-(isopropylamino)piperidin-1-yl)methanone]",739 nM,37 nM,17 nM
"COCCN(CCOC)Cc1nnc(-c2ccc3[nH]c(-c4ccc(OC)c(OC)c4)c(C(C)C)c3c2)o1 [Example 118, N-((5-(2-(3,4-dimethoxyphenyl)-3-isopropyl-1H-indol-5-yl)-1,3,4-oxadiazol-2-yl)methyl)-2-methoxy-N-(2-methoxyethyl)ethan-1-amine]",18600 nM,227 nM,362 nM
"Cc1cc(-c2[nH]c3ccc(-c4cnc(N)cn4)cc3c2C(C)C)ccn1 [Example 359, 5-(3-isopropyl-2-(2-methylpyridin-4-yl)-1H-indol-5-yl)pyrazin-2-amine]",14400 nM,17 nM,7.5 nM
"CNCCN1CCn2nc(-c3ccc4[nH]c(-c5ccnc(C)c5)c(C(C)C)c4c3)c(C(N)=O)c2C1 [Example 218, 2-(3-isopropyl-2-(2-methylpyridin-4-yl)-1H-indol-5-yl)-5-(2-(methylamino)ethyl)-4,5,6,7-tetrahydropyrazolo[1,5-a]pyrazine-3-carboxamide]",1940 nM,496 nM,93 nM
"CC(C)c1c(-c2ccc3nccn3c2)[nH]c2ccc(-c3nnc(C(=O)NC4CCN(C(C)C)CC4)o3)cc12 [Example 241, 5-(2-(imidazo[1,2-a]pyridin-6-yl)-3-isopropyl-1H-indol-5-yl)-N-(1-isopropylpiperidin-4-yl)-1,3,4-oxadiazole-2-carboxamide]",306 nM,43 nM,43 nM
"COc1ccc(-c2[nH]c3ccc(-c4nnc(CCn5ccnc5)o4)cc3c2C(C)C)cc1OC [Example 47, 2-(2-(1H-imidazol-1-yl)ethyl)-5-(2-(3,4-dimethoxyphenyl)-3-isopropyl-1H-indol-5-yl)-1,3,4-oxadiazole]",19100 nM,194 nM,82 nM
"COc1ccc(-c2[nH]c3ccc(-c4nnc(C5CCN(C)CC5)o4)cc3c2C(C)C)cc1OC [Example 20, 2-(2-(3,4-dimethoxyphenyl)-3-isopropyl-1H-indol-5-yl)-5-(1-methylpiperidin-4-yl)-1,3,4-oxadiazole]",821 nM,31 nM,4.8 nM
"CC(C)c1c(-c2ccnc3[nH]ncc23)[nH]c2ccc(-c3ccc4nccnc4c3)cc12 [Example 468, 6-(3-isopropyl-2-(1H-pyrazolo[3,4-b]pyridin-4-yl)-1H-indol-5-yl)quinoxaline]",47300 nM,450 nM,35 nM
"CC(C)c1c(-c2ccnc3[nH]ncc23)[nH]c2ccc(-c3nnc(C(=O)N4CCCN(C)CC4)o3)cc12 [Example 125, (5-(3-isopropyl-2-(1H-pyrazolo[3,4-b]pyridin-4-yl)-1H-indol-5-yl)-1,3,4-oxadiazol-2-yl)(4-methyl-1,4-diazepan-1-yl)methanone]",776 nM,183 nM,40 nM
"COc1ccc(-c2[nH]c3ccc(-c4ccnc(N5CCN(C6CCCC6)CC5)c4)cc3c2C(C)C)cc1OC [Example 426, 5-(2-(4-cyclopentylpiperazin-1-yl)pyridin-4-yl)-2-(3,4-dimethoxyphenyl)-3-isopropyl-1H-indole]",1450 nM,838 nM,56 nM
"CC(C)c1c(-c2ccnc3[nH]ncc23)[nH]c2ccc(-c3nnc(CN4CCC[C@H]4C(N)=O)o3)cc12 [Example 158, (S)-1-((5-(3-isopropyl-2-(1H-pyrazolo[3,4-b]pyridin-4-yl)-1H-indol-5-yl)-1,3,4-oxadiazol-2-yl)methyl)pyrrolidine-2-carboxamide]",> 50000 nM,1380 nM,174 nM
"COc1ccc(-c2[nH]c3ccc(-c4cccc(C(=O)N(C)CCc5ccccn5)c4)cc3c2CC(F)(F)F)cc1OC [Example 35, 3-(2-(3,4-dimethoxyphenyl)-3-(2,2,2-trifluoroethyl)-1H-indol-5-yl)-N-methyl-N-(2-(pyridin-2-yl)ethyl)benzamide]",> 50000 nM,974 nM,71 nM
"COc1ccc(-c2[nH]c3ccc(-c4nnc(CN5CCC[C@H]5C(N)=O)o4)cc3c2C(C)C)cc1OC [Example 122, (S)-1-((5-(2-(3,4-dimethoxyphenyl)-3-isopropyl-1H-indol-5-yl)-1,3,4-oxadiazol-2-yl)methyl)pyrrolidine-2-carboxamide]",> 50000 nM,225 nM,279 nM
"Cc1cc(-c2[nH]c3ccc(-c4cnc(NC(=O)CN(C)C)cn4)cc3c2C(C)C)ccn1 [Example 365, 2-(dimethylamino)-N-(5-(3-isopropyl-2-(2-methylpyridin-4-yl)-1H-indol-5-yl)pyrazin-2-yl)acetamide]",1290 nM,7.3 nM,1.6 nM
"Cc1cc(-c2[nH]c3ccc(-c4ccnc(N5CCNCC5)c4)cc3c2C(C)C)cc(C)n1 [Example 320, 2-(2,6-dimethylpyridin-4-yl)-3-isopropyl-5-(2-(piperazin-1-yl)pyridin-4-yl)-1H-indole]",2970 nM,71 nM,86 nM
"COc1ccc(-c2[nH]c3ccc(-c4nnc(CN(C)C)o4)cc3c2C(C)C)cc1OC [Example 44, 1-(5-(2-(3,4-dimethoxyphenyl)-3-isopropyl-1H-indol-5-yl)-1,3,4-oxadiazol-2-yl)-N,N-dimethylmethanamine]",12100 nM,266 nM,14 nM
"CCc1c(-c2ccc(OC)c(OC)c2)[nH]c2ccc(-c3noc(CCOC)n3)cc12 [Example 451, 3-(2-(3,4-dimethoxyphenyl)-3-ethyl-1H-indol-5-yl)-5-(2-methoxyethyl)-1,2,4-oxadiazole]",> 50000 nM,3980 nM,1290 nM
"CC(C)c1c(-c2ccnc3[nH]ncc23)[nH]c2ccc(-c3c[nH]nc3C(F)(F)F)cc12 [Example 438, 4-(3-isopropyl-5-(3-(trifluoromethyl)-1H-pyrazol-4-yl)-1H-indol-2-yl)-1H-pyrazolo[3,4-b]pyridine]",38000 nM,947 nM,10 nM
"CNCCCNC(=O)c1coc(-c2ccc3[nH]c(-c4cc(C)nc(C)c4)c(C(C)C)c3c2)n1 [Example 279, 2-(2-(2,6-dimethylpyridin-4-yl)-3-isopropyl-1H-indol-5-yl)-N-(3-(methylamino)propyl)oxazole-4-carboxamide]",128 nM,14 nM,8.8 nM
"COc1ccc(-c2[nH]c3ccc(-c4nnc(C5CCN(CC(=O)N(C)C)CC5)o4)cc3c2C(C)C)cc1OC [Example 17, 2-(4-(5-(2-(3,4-dimethoxyphenyl)-3-isopropyl-1H-indol-5-yl)-1,3,4-oxadiazol-2-yl)piperidin-1-yl)-N,N-dimethylacetamide]",6440 nM,108 nM,17 nM
"COc1ccc(-c2[nH]c3ccc(-c4nnc(C5CCN(C(C)C)CC5)o4)cc3c2C(C)C)cc1OC [Example 4, 2-(3,4-dimethoxyphenyl)-3-(propan-2-yl)-5-{5-[1-(propan-2-yl)piperidin-4-yl]-1,3,4-oxadiazol-2-yl}-1H-indole]",979 nM,78 nM,9 nM
"CC(C)c1c(-c2ccnc3n[nH]cc23)[nH]c2ccc(-c3nnc(CN4CCCC4)o3)cc12 [Example 128, 2-(3-isopropyl-2-(2H-pyrazolo[3,4-b]pyridin-4-yl)-1H-indol-5-yl)-5-(pyrrolidin-1-ylmethyl)-1,3,4-oxadiazole]",34100 nM,1100 nM,167 nM
"CNc1ccc(-c2ccc3[nH]c(-c4ccnc(C)c4)c(C(C)C)c3c2)cn1 [Example 293, 5-(3-isopropyl-2-(2-methylpyridin-4-yl)-1H-indol-5-yl)-N-methylpyridin-2-amine]",39700 nM,67 nM,9.8 nM
"COc1ccc(-c2[nH]c3ccc(-c4ccc(N5CCCN(CCO)CC5)cc4)cc3c2C(C)C)cc1OC [Example 379, 2-(4-(4-(2-(3,4-dimethoxyphenyl)-3-isopropyl-1H-indol-5-yl)phenyl)-1,4-diazepan-1-yl)ethan-1-ol]",2950 nM,692 nM,71 nM
